One assay concerns CCL2. In words: CCL2 ELISA in CT26 tumor tissue. The assay is classed as in vivo, mouse. The following applies: CT26 tumors. As to the method: CT26 tumor cells were cultivated in RPMI 1640 with 2 mM L-glutamine (Gibco, Invitrogen GmbH) containing 10% fetal bovine serum (Gibco) at 37 °C and 5% CO2. Cell lines were maintained in culture for no longer than 6 months, and mycoplasma contamination was excluded by enzymatic test (MycoAlert, Lonza) prior to in vivo application. Tumor cells (2 × 10^6) were transplanted subcutaneously into 6- to 8-week-old female BALB/c mice. Control mice were subjected to sham surgery without tumor cell transplantation. Blood and tumor samples were collected from untreated control and tumor-bearing mice on days 4 and 8 (n = 3 mice/group). […] For interim analysis, blood and tumor tissue were collected from each group (n = 3 mice/group) after 7 days of treatment. […] Tumor diameter was measured by caliper and body weight was determined at least twice weekly. Tumor volume was calculated using the formula 0.5 × a × b^2, where a and b are the long and short diameters of the tumor, respectively.
For tissue collection, mice were killed at predetermined time points. […] Tumors were removed, and their weights determined, then divided into three pieces, one of which was snap-frozen, one formalin fixed and paraffin embedded, and one weighed and used for FC analyses. […]

In a further assay the test system is AKT. In words: Inhibition of AKT activation in CSF1-stimulated RAW264.7 cells (western blot). It is filed as cell-based, mouse. Particulars: Mus musculus, mean ± SD (replicates), read-out: Mean kinase IC50 values: P(S473)AKT [WB]. As to the method: RAW264.7 cells (10^6) were seeded into cell culture dishes 6 cm in diameter and incubated in 4 mL RPMI/10% fetal bovine serum (Biochrom) for 24 h at 37 °C in a humidified 5% CO2 atmosphere. Cells were washed once with phosphate-buffered saline (PBS) and starved in 3 mL RPMI/0.1% bovine serum albumin for another 24 h. Cells were then treated for 1 h at 37 °C with drugs at the indicated final concentrations, with 0.5% DMSO as vehicle control, or left untreated, and finally stimulated for 2 min at 37 °C with 100 ng/mL recombinant mouse CSF1 (R&D Systems) by adding 1 mL prewarmed starving medium containing 400 ng/mL CSF1. Dishes were placed on ice and cells were immediately washed with ice-cold PBS and lysed with 50 µL lysis buffer (50 mM HEPES pH 7.5, 150 mM NaCl, 1.5 mM MgCl2, 10% glycerol, 1% Triton X-100, 0.5% desoxycholate, 0.2% sodium dodecyl sulfate, 1 mM ethylene glycol-bis[β-aminoethyl ether]-N,N,N′,N′-tetraacetic acid, 100 mM NaF, 10 mM Na4P2O7, 1 mM Na3VO4, 1% Phosphatase Inhibitor Cocktail 3 [Sigma-Aldrich], 1 mM phenylmethyl sulfonyl fluoride, Complete Protease Inhibitor Cocktail [Roche CustomBiotech; 1 tablet/10 mL], and 50 U/mL Benzonase [Sigma-Aldrich]). Lysed cells were scraped into Eppendorf tubes, incubated on ice for 20 min, and centrifuged at 4 °C for 10 min at 13,000 rpm; supernatants (lysates) were transferred into new tubes and stored at −80 °C.
Protein concentrations were determined using Pierce bicinchoninic acid assay (Thermo Fisher Scientific) and 40 µg/lane of total lysate was separated by SDS-PAGE on 4–12% Criterion XT Bis–Tris Gels (Bio-Rad) and subsequently transferred to polyvinylidene difluoride membranes using the Trans Blot Turbo Blotting System (Bio-Rad). For antigen detection, membranes were blocked with PBS Odyssey blocking reagent (LI-COR Biosciences) for 1 h at room temperature (RT). Primary antibodies were incubated overnight at 4 °C and the fluorescent secondary antibodies were incubated for 1 h at RT. After each antibody incubation, blots were washed with PBS with 0.05% Tween 20 (Carl Roth) for 15–30 min at RT. Fluorescent signals were quantitatively captured using the Odyssey DLx Infrared Imaging System (LI-COR Biosciences) and the half-maximal inhibitory concentration (IC50) values were calculated using GraphPad software (version 7 or newer).

The structures appear in SMILES notation.

The IC50 is the midpoint of a concentration-inhibition curve. On to `CNC(=O)c1cc(Oc2ccc(NC(=O)Nc3ccc(Cl)c(C(F)(F)F)c3)c(F)c2)ccn1` [REG, Regorafenib], for which the “CCL2 concentrations in tumor lysates vs vehicle controls” value in the assay with CCL2 is “a trend toward higher levels”. In addition, in the assay with AKT, the IC50 was 141 ± 59 nM.
